Experimental data from paper PMC8419314, “Characterization of Compound-Specific, Concentration-Independent Biophysical Properties of Sodium Channel Inhibitor Mechanism of Action Using Automated Patch-Clamp Electrophysiology” (Frontiers in Pharmacology, 2021).
Where “and” joins values, the source holds several entries; their conditions need not be identical. Equal entries are not always repeated. Where two headings read alike, the source gives them in different places.

Tests used:
[1] = biological target: T1, rNaV1.4 channel (Rattus norvegicus, UniProt P15390); assay: automated patch-clamp 17-pulse protocol (SDO, RFI, SSI), IonFlux Mercury, cell ensembles; assay type: cell-based; settings: for Ki: inactivated-state affinity, calculated with equation of Bean et al. (1983)
T1 construct: expressed in transfected cells; host or cells: HEK 293
Method: Cell culture and electrophysiology were done as described in the accompanying paper ([Lukacs et al., 2021]). The recombinant rNaV1.4 channel-expressing cell line was generated as described before ([Lukacs et al., 2018]). Transfected HEK 293 cells were maintained in Dulbecco’s Modified Eagle Medium, high glucose supplemented with 10% v/v fetal bovine serum, 100 U/ml of penicillin/streptomycin, and 0.4 mg/ml Geneticin (Life Technologies, Carlsbad, CA). For experiments, cells were dissociated from culture dishes with Accutase (Corning), shaken in serum-free medium for 60 min at room temperature, then centrifuged, and resuspended into the extracellular solution to a concentration of 5 × 10^6 cells/mL. Voltage-clamp recordings were performed on an IonFlux Mercury instrument (Fluxion Biosciences). The composition of solutions (in mM) was: Intracellular solution: 50 CsCl, 10 NaCl, 60 CsF, 20 EGTA, and 10 HEPES; pH 7.2 (adjusted with 1 M CsOH). Extracellular solution: 140 NaCl, 4 KCl, 1 MgCl2, 2 CaCl2, 5 D-Glucose, and 10 HEPES; pH 7.4 (adjusted with 1 M NaOH). The osmolality of intra-and extracellular solutions was set to ∼320 and ∼330 mOsm, respectively. Data were sampled at 20 kHz, and filtered at 10 kHz. Experiments were carried out at room temperature.
Each zone consists of 8 separate sections, which are distinct functional units, containing 12 wells: one well for the cell suspension, one well for the waste, two cell “traps” (intracellular solution-filled wells under negative pressure to establish high resistance seals and then whole-cell configuration), and eight compound wells. […] Two kinds of microfluidic plates are manufactured: In single-cell plates, each cell trap contains a single hole and therefore catches a single cell. In “ensemble plates” there are 20 holes in each cell trap, and 20 cells are recorded simultaneously. […] From the 16 cell ensembles of each zone, we chose n = 6 ensembles for analysis.
We used a complex 17-pulse voltage protocol (Figure 1A), described in detail in the accompanying paper ([Lukacs et al., 2021]), which allowed the assessment of gating kinetics and gating equilibrium in the absence and the presence of inhibitor/modulator compounds. The protocol investigated the effect of different durations of depolarizations: 2.5, 7.5, 22.5, and 67.5 ms with 2.5 ms hyperpolarizing gaps between them; this section (pulses #1 to #5) is shown by different shades of green in Figure 1, and was named “state-dependent onset” (SDO). Next, pulses #6 to #12, as well as #1 investigated the effect of different durations of hyperpolarizations (1, 2, 4, 8, 16, 32, 64, and 498 ms, separated by 5 ms depolarizations) in the section shown by different shades of blue, and named “recovery from inactivation” (RFI). Finally, pulses #12 to #17 assessed the resting-inactivated equilibrium at different membrane potentials in the section named “steady-state inactivation” (SSI). The three sections were similar to protocols we used in previous studies ([Lukacs et al., 2018]; [Földi et al., 2021]).
In addition to automatic fitting, described in the accompanying paper ([Lukacs et al., 2021]), in this study we used a different approach to process SDO, RFI, and SSI data. This analysis focused on deriving compound-specific but concentration-independent descriptors of the mechanism of action, which can lead to a more thorough understanding of the sub-processes involved in drug action, and which can later serve as a basis for constructing kinetic models for the simulation of drug-specific effects. All data analysis was done in Microsoft Excel (RRID:SCR_016137) environment, using VBA routines to accelerate repetitive data management tasks. For each of the 17 pulses peak amplitudes were measured after removing capacitive artifacts and subtracting the leak.

[2] = biological target: T1, rNaV1.4 channel; assay: as above; assay type: cell-based; settings: pulse #5, SDO section; read-out: IC50 #5 (after 65.7 ms depol.)
[3] = biological target: sodium channel; design: method as in Vladimirov et al., 2000; settings: resting-state; ref Vladimirov et al., 2000; read-out: KR; cited from earlier work
[4] = biological target: sodium channel; design: method as in Lenkey et al., 2010; settings: resting-state; ref Lenkey et al., 2010; read-out: KR; cited from earlier work
[5] = system: sodium channel; settings: from 10 Hz to 50 Hz; ref Desaphy et al. (2014); cited from earlier work
[6] = 1st pulse-evoked current, resting-state estimate, n = 6 ensembles, read-out: IC50 #1 (estimated KR)
[7] = pulse #7, RFI section, read-out: IC50 #7 (after 1 ms hyperpol.)
[8] = pulse #17, SSI section, read-out: IC50 #17 (−70 mV)
[9] = time range within which effective inhibitor potency changes upon depolarization
[10] = time range within which effective inhibitor potency changes upon hyperpolarization

T1 sequence (P15390 whole entry): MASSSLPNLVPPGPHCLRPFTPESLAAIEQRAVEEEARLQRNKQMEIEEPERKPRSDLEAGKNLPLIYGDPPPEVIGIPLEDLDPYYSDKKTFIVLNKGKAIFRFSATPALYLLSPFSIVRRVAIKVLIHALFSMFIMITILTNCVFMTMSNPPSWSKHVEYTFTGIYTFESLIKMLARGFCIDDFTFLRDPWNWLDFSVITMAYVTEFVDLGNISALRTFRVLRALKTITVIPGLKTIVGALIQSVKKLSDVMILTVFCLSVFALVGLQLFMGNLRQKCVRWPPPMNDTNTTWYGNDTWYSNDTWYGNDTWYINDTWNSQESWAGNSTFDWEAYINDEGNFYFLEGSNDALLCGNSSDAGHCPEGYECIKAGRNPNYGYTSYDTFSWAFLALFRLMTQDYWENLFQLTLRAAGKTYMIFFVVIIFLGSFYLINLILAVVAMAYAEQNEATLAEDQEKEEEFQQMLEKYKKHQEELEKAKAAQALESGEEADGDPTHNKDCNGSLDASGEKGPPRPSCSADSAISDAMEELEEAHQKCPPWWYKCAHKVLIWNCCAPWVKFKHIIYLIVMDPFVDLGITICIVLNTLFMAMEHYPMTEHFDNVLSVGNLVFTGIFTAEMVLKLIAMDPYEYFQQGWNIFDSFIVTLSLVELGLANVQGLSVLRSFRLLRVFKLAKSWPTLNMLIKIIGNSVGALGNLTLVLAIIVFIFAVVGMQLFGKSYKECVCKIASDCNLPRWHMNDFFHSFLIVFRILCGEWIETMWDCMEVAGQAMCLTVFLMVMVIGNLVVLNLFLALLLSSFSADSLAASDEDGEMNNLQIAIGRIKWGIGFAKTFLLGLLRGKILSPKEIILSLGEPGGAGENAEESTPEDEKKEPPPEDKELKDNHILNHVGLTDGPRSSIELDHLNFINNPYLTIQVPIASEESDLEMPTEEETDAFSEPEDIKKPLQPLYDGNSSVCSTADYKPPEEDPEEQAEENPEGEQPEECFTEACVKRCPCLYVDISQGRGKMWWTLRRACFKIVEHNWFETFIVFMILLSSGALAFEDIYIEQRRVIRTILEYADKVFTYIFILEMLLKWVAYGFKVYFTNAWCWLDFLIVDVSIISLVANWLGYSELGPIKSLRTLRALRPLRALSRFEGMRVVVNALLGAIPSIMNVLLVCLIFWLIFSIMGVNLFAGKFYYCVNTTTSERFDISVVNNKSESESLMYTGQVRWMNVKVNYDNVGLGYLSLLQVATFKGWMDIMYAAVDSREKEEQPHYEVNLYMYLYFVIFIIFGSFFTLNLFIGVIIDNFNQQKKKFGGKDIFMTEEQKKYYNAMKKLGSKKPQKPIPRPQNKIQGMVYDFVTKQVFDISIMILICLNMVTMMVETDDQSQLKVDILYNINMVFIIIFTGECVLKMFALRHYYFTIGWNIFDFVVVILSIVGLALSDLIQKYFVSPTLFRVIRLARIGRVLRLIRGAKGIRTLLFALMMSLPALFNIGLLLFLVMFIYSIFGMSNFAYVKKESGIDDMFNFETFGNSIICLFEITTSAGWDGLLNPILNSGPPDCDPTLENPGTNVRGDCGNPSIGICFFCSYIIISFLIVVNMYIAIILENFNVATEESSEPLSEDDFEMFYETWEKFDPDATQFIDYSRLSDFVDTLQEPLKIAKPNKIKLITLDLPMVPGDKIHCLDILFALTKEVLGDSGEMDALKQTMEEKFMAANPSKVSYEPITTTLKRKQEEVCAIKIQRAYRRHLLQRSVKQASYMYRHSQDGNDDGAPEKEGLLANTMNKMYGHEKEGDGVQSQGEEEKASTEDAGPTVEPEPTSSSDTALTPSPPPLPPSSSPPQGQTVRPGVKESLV

| Compound | KR/KI ratio [1] | macro-offset time constant [1] [s] | micro-offset range [1] [ms] | micro-onset range [1] [ms] | IC50 [1, 6] [µM] | Ki [1] [µM] | IC50 [1, 7] [µM] | IC50 [1, 8] [µM] | IC50 [2] [µM] | macro-offset time constant ([1]; offset upon drug washout) [s] | KR/KI ratio ([1]; state-dependence) | micro-onset range [1, 9] | micro-offset range [1, 10] | also measured |
| --- | --- | --- | --- | --- | --- | --- | --- | --- | --- | --- | --- | --- | --- | --- |
| CCN(CC)CC(=O)Nc1c(C)cccc1C [Lidocaine, lidocaine] | 69.7 and 69.7 ± 20.9 | 1.72 ± 0.05 | 10 to 500 | 1 to 100 | 1280 | 18.4 ± 1.52 | 71.7 ± 5.83 | 22.8 ± 2.04 | 31.9 ± 2.28 |  |  |  |  | time for micro-onset to be complete [1]: more than 100 ms |
| CCCCN1CCCCC1C(=O)Nc1c(C)cccc1C (stereo not shown) [Bupivacaine, bupivacaine] |  |  |  |  | 94.6 ± 10.7 | 12.7 ± 1.22 | 33.5 ± 2.32 | 16.3 ± 1.7 | 27.3 ± 1.45 | 3.56 ± 0.43 | 7.48 ± 0.68 | 100–1,000 ms | 100–1,000 ms | macro-offset time constant ([1]; offset upon drug washout, listed as bupivacaine): 3.56 s; KR/KI ratio ([1]; state-dependence, listed as bupivacaine): 7.48; Kd [3]: ~317 µM; Kd [4]: ~619 µM |
| CCOC(=O)c1ccc(N)cc1 [Benzocaine, benzocaine] |  |  |  |  | 2240 | 79.4 ± 3.9 | 290 ± 22.3 | 170 ± 10.3 | 1300 | 1.42 ± 0.59 | 28.3 ± 3.8 | 0.1 to 2 ms | 0.1 to 4 ms | fraction of channels inhibited ([1]; 100 µM, indicated by KI calculated from SSI data): more than half; channels recovered ([1]; at 2 ms gap duration): 70–90%; time for micro-offset to be complete ([1]; offset of effect upon hyperpolarization): ≤ 4 ms; time for micro-onset to be complete ([1]; onset of effect upon depolarization): ≤ 2.5 ms; KR/KI ratio ([1]; state-dependence, listed as benzocaine): 28.3 |
| Nc1nc2ccc(OC(F)(F)F)cc2s1 [Riluzole, riluzole] |  |  |  |  | 1360 | 5.63 ± 3.35 | 42.1 ± 3.62 | 6.86 ± 4.36 | 27.4 ± 6.44 | 13.6 ± 0.71 |  |  |  | inhibition, pulses #1, #6 and #12 ([1]; 100 µM, single cell ensemble): no inhibition; inhibition, pulses #7 and #17 ([1]; 100 µM, single cell ensemble): almost full inhibition; increase of apparent affinity [5]: 48 fold |
| NC1=N[C@H](O)[C@H]2[C@H]3O[C@]4(O)O[C@@H]([C@@H](O)[C@@]2(N1)[C@@H]4O)[C@]3(O)CO [Tetrodotoxin, tetrodotoxin] | 1.7 ± 0.11 | 22.9 ± 1.50 | 1 to 10 | 1 to 100 |  |  |  |  |  |  |  |  |  | extent of change of EIP during SDO, RFI and SSI sections [1]: less than 2 fold; IC50 ([1]; read-out: IC50 #1 (estimated KR)): 0.028 µM; IC50 ([1]; read-out: IC50 #5 (after 65.7 ms depol.)): 0.015 µM; IC50 ([1]; read-out: IC50 #7 (after 1 ms hyperpol.)): 0.018 µM; IC50 ([1]; read-out: IC50 #17 (−70 mV)): 0.018 µM |
